From patent US12285357B2, “Intraocular drug delivery systems and methods of use” (SpyGlass Pharma, Inc., priority 2022, dated 2025)

Experiments:
[1] = daily release or elution of Bimatoprost in vitro versus time (FIG. 8); format: physicochemical; conditions: four-hundred-day study
Source text: FIG. 8 is an exemplary graph of daily release or elution of a pharmaceutical or therapeutic agent in vitro versus time. […] The target release rate in this study on rabbits was 0.050 to 0.100 micrograms per day.

[2] = Bimatoprost sampled in the aqueous humor of dogs over time (FIG. 9); format: in vivo
Source text: FIG. 9 is an exemplary graph of a therapeutic agent delivered to the aqueous humor of an eye of canines versus time.
In this example, there was a low dose group of dogs (Grp 1), a mid-dose group of dogs (Grp 2), a high dose group of dogs (Grp 3), and a placebo group of dogs (Grp 4).

In the case of CCNC(=O)CCC/C=C\C[C@@H]1[C@@H](/C=C/[C@@H](O)CCc2ccccc2)[C@H](O)C[C@@H]1O [Bimatoprost], the “release rate order over time” value [1] is reported as “essentially a zero-order and/or a steady state elution rate”, the “level of Bimatoprost in the aqueous humor, elution order” value ([2]; low dose (Grp 1), mid-dose (Grp 2), high dose (Grp 3), study period about one hundred thirteen days) is reported as “zero-order elution rate” and the “mean measurements of Bimatoprost in the aqueous humor versus dose” value ([2]; low, mid and high dose groups, sampled in ng/mL) is reported as “increased with the higher doses”.
